Data on two compounds can be found in ChEMBL document CHEMBL2169748 (J Med Chem, 2012).

Series [1] can be described thus: Volume of distribution at steady state in rat. Type of series: ADME, organism-based. Particulars: in vivo, read-out: Vdss.
Series [2] in a line: Clearance in dog. The class given is ADME, organism-based, Canis lupus familiaris. Conditions: in vivo.
Series [3] in a line: Half life in dog. Type of series: ADME, organism-based, Canis lupus familiaris. Particulars: in vivo.
A short description of series [4]: Volume of distribution at steady state in dog. Type of series: ADME, organism-based, Canis lupus familiaris. Particulars: in vivo, read-out: Vdss.
A short description of series [5]: Oral bioavailability in rat. Type of series: ADME, organism-based. Particulars: in vivo.
The nature of series [6]: Half life in rat. Type of series: ADME, organism-based. Particulars: in vivo.
A short description of series [7]: Oral bioavailability in dog. Type of series: ADME, organism-based, Canis lupus familiaris. Particulars: in vivo.
Series [8] can be described thus: Clearance in rat. Conditions: in vivo. The class given is ADME, organism-based.
Series [9] can be described thus: Permeability across MDCK cells. Particulars: dog. Type of series: ADME, cell-based, Canis lupus familiaris.
Series [10] in a line: Solubility in aqueous solution at pH 6.5. The class given is physicochemical.

SMILES strings stand for the structures. Converted amounts (≈) assume the structure as drawn. Bounds are passed on as bounds.

In the case of `CCc1nc2ccccc2n1-c1nc(N2CCOCC2)c2nc(CN3CCC(C(C)(C)O)CC3)n(C)c2n1`, the Vd in [1] stood at 4.1 L/kg; in series [4] it was 2 L/kg. For the same compound, the results for the clearance in series [2] and in series [8] were 5 mL/min/kg and 19 mL/min/kg, respectively. For the same compound, the half-life in series [3] is 6.4 h; in series [6], 1.5 h. The bioavailability in series [5] was 92%; in series [7], above 100%.

With `CCc1nc2ccccc2n1-c1nc(N2CCOCC2)c2nc(CN3CC(C4CCOCC4)C3)n(C)c2n1`, the Vd in series [1] and in series [4] was 6.5 L/kg throughout. In addition, the figures for the clearance in series [2] and in [8] were 25 mL/min/kg and 34 mL/min/kg, respectively. Moreover, the half-life in [3] was 3.6 h; in series [6], 2.6 h. In addition, the Papp in series [9] was 16 ×10⁻⁶ cm/s. The compound also came in with a bioavailability in series [7] of 56%. For the same compound, the concentration in solution in series [10] (solubility) was 338 µg/mL (≈ 654 µM).

By clearance is commonly meant a measure of how efficiently the substance is removed, as volume per time. Read a low clearance as inefficient removal. Broadly, the half-life is the time needed for the level to fall by half in the phase considered. Read a high half-life as slow decline. For orientation: bioavailability means the share of a dose that reaches the circulation, judged against a reference dose that is usually intravenous. The low end stands for poor availability, the high end for good availability. By Papp is commonly meant the rate of passage across a membrane or cell layer, normalised by area and donor concentration. One may read the solubility as the dissolved amount per volume that the medium holds. Low readings indicate little dissolved substance, high ones much dissolved substance.
